Biological target: human GPR40 receptor (Homo sapiens, UniProt O14842)
Experiment: Assay I: IP1 accumulation (IPOne HTRF) in 1321N1 cells stably expressing human GPR40
Format: cell-based
Conditions: 1321N1 cells expressing human GPR40, stimulation 1 hour at 37° C., 10% CO2, final LiCl 50 mM
Method: IP1 accumulation measurements using the IPOne assay system—1321N1 cells stably expressing human GPR40 receptor (Euroscreen, Belgium) are seeded 24 h before the assay in black clear-bottom collagen-coated 384-well plates in culture medium containing 10% FCS, 1% Na-Pyruvate and 400 μg/mL G418. IP1 is assayed according to the Manufacturers description (Cisbio Bioassays, France). In brief, the assay is started by substitution of the culture medium by stimulation buffer (Hepes 10 mM, CaCl2 1 mM, MgCl2 0.5 mM, KCl 4.2 mM, NaCl 146 mM and glucose 5.5 mM, pH 7.4) without LiCl. Cells are stimulated for 1 hour at 37° C., 10% CO2 by addition of the compounds that are diluted in stimulation buffer containing LiCl yielding a final LiCl concentration of 50 mM. Assays are stopped by adding HTRF-conjugates (IP1-d2 and Anti-IP1 cryptate Tb) and lysis buffer, provided by the manufacturer. After an incubation time of 1 hour at room temperature plates are measured using an EnVision™, Perkin Elmer. The obtained fluorescence ratios at 665/615 nM are then used to calculate the pEC50 values using GraphPad Prism 5 (Graphpad Software Inc, USA) by interpolation using an IP1 reference curve and subsequent sigmoidal curve fitting allowing for a variable hill slope.

Sequence of human GPR40 receptor (O14842 whole entry): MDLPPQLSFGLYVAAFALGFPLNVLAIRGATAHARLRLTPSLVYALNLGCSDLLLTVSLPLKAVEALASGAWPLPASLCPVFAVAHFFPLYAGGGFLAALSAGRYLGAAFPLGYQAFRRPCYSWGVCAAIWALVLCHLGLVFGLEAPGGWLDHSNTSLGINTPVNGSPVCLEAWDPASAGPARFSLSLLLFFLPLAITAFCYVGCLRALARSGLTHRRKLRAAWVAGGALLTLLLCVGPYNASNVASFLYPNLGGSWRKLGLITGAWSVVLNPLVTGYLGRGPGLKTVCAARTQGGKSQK

Structure (SMILES) | EC50
Cc1cc(OCC(N)=O)cc(C)c1-c1ccc(F)c2c1CC[C@H]2Oc1ccc2c(c1)OC[C@H]2CC(=O)O [Example 14, 2-((S)-6-((R)-4-(4-(2-Amino-2-oxoethoxy)-2,6-dimethylphenyl)-7-fluoro-2,3-dihydro-1H-inden-1-yloxy)-2,3-dihydrobenzofuran-3-yl)acetic acid] | 14 nM
Cc1cc(OCC(C)(C)CN(C)C)cc(C)c1-c1ccc(F)c2c1CC[C@H]2Oc1ccc2c(c1)OC[C@H]2CC(=O)O [Example 22, 2-((S)-6-((R)-4-(4-(3-(Dimethylamino)-2,2-dimethylpropoxy)-2,6-dimethylphenyl)-7-fluoro-2,3-dihydro-1H-inden-1-yloxy)-2,3-dihydrobenzofuran-3-yl)acetic acid] | 17 nM
COCC(C)(C)COc1cc(C)c(-c2ccc(F)c3c2CC[C@H]3Oc2ccc3c(c2)OC[C@H]3CC(=O)O)c(C)c1 [Example 16, 2-((S)-6-((R)-7-Fluoro-4-(4-(3-methoxy-2,2-dimethylpropoxy)-2,6-dimethylphenyl)-2,3-dihydro-1H-inden-1-yloxy)-2,3-dihydrobenzofuran-3-yl)acetic acid] | 5 nM
Cc1cc(OCC2CCS(=O)(=O)C2)cc(C)c1-c1ccc(F)c2c1CC[C@H]2Oc1ccc2c(c1)OC[C@H]2CC(=O)O (stereo partly drawn) [Example 27, 2-((3S)-6-((1R)-4-(2,6-Dimethyl-4-((1,1-dioxo-tetrahydrothiophen-3-yl)methoxy)phenyl)-7-fluoro-2,3-dihydro-1H-inden-1-yloxy)-2,3-dihydrobenzofuran-3-yl)acetic acid] | 9 nM
Cc1cc(C(=O)N2CCOCC2)cc(C)c1-c1ccc(F)c2c1CC[C@H]2Oc1ccc2c(c1)OC[C@H]2CC(=O)O [Example 63, 2-((S)-6-((R)-4-(2,6-Dimethyl-4-(morpholine-4-carbonyl)phenyl)-7-fluoro-2,3-dihydro-1H-inden-1-yloxy)-2,3-dihydrobenzofuran-3-yl)acetic acid] | 38 nM
Cc1cc(OCC2CCOC2)cc(C)c1-c1ccc(F)c2c1CC[C@H]2Oc1ccc2c(c1)OC[C@H]2CC(=O)O (stereo partly drawn) [Example 2, 2-((3S)-6-((1R)-4-(2,6-dimethyl-4-((tetrahydrofuran-3-yl)methoxy)phenyl)-7-fluoro-2,3-dihydro-1H-inden-1-yloxy)-2,3-dihydrobenzofuran-3-yl)acetic acid] | 5 nM
Cc1cc(C(N)=O)cc(C)c1-c1ccc(F)c2c1CC[C@H]2Oc1ccc2c(c1)OC[C@H]2CC(=O)O [Example 60, 2-((S)-6-((R)-4-(4-Carbamoyl-2,6-dimethylphenyl)-7-fluoro-2,3-dihydro-1H-inden-1-yloxy)-2,3-dihydrobenzofuran-3-yl)acetic acid] | 26 nM
Cc1cc(OCC(C)(C)CO)cc(C)c1-c1ccc(F)c2c1CC[C@H]2Oc1ccc2c(c1)OC[C@H]2CC(=O)O [Example 15, 2-((S)-6-((R)-7-Fluoro-4-(4-(3-hydroxy-2,2-dimethylpropoxy)-2,6-dimethylphenyl)-2,3-dihydro-1H-inden-1-yloxy)-2,3-dihydrobenzofuran-3-yl)acetic acid] | 5 nM
CCS(=O)(=O)N1CC(COc2cc(C)c(-c3ccc(F)c4c3CC[C@H]4Oc3ccc4c(c3)OC[C@H]4CC(=O)O)c(C)c2)C1 [Example 30, 2-((S)-6-((R)-4-(4-((1-(Ethylsulfonyl)azetidin-3-yl)methoxy)-2,6-dimethylphenyl)-7-fluoro-2,3-dihydro-1H-inden-1-yloxy)-2,3-dihydrobenzofuran-3-yl)acetic acid] | 7 nM
Cc1cc(OC2CCOCC2)cc(C)c1-c1ccc(F)c2c1CC[C@H]2Oc1ccc2c(c1)OC[C@H]2CC(=O)O [Example 7, 2-((S)-6-((R)-4-(2,6-Dimethyl-4-(tetrahydro-2H-pyran-4-yloxy)phenyl)-7-fluoro-2,3-dihydro-1H-inden-1-yloxy)-2,3-dihydrobenzofuran-3-yl)acetic acid] | 6 nM
Cc1cc(O[C@H]2CCOC2)cc(C)c1-c1ccc(F)c2c1CC[C@H]2Oc1ccc2c(c1)OC[C@H]2CC(=O)O [Example 8, 2-((S)-6-((R)-4-(2,6-Dimethyl-4-((S)-tetrahydrofuran-3-yloxy)phenyl)-7-fluoro-2,3-dihydro-1H-inden-1-yloxy)-2,3-dihydrobenzofuran-3-yl)acetic acid] | 4 nM
COCCCS(=O)(=O)c1cc(C)c(-c2ccc(F)c3c2CC[C@H]3Oc2ccc3c(c2)OC[C@H]3CC(=O)O)c(C)c1 [Example 53, ((S)-6-{(R)-7-Fluoro-4-[4-(3-methoxy-propane-1-sulfonyl)-2,6-dimethyl-phenyl]-indan-1-yloxy}-2,3-dihydro-benzofuran-3-yl)-acetic acid] | 1220 nM
Cc1cc(OCC2CCCO2)cc(C)c1-c1ccc(F)c2c1CC[C@H]2Oc1ccc2c(c1)OC[C@H]2CC(=O)O (stereo partly drawn) [Example 3, 2-((3S)-6-((1R)-4-(2,6-dimethyl-4-((tetrahydrofuran-2-yl)methoxy)phenyl)-7-fluoro-2,3-dihydro-1H-inden-1-yloxy)-2,3-dihydrobenzofuran-3-yl)acetic acid] | 6 nM
Cc1cc(C2=CCOCC2)cc(C)c1-c1ccc(F)c2c1CC[C@H]2Oc1ccc2c(c1)OC[C@H]2CC(=O)O [Example 24, 2-((S)-6-((R)-4-(4-(3,6-dihydro-2H-pyran-4-yl)-2,6-dimethylphenyl)-7-fluoro-2,3-dihydro-1H-inden-1-yloxy)-2,3-dihydrobenzofuran-3-yl)acetic acid] | 3 nM
Cc1cc(OCCS(C)(=O)=O)cc(C)c1-c1ccc(F)c2c1CC[C@H]2Oc1ccc2c(c1)OC[C@H]2CC(=O)O [Example 6, 2-((S)-6-((R)-4-(2,6-Dimethyl-4-(2-(methylsulfonyl)ethoxy)phenyl)-7-fluoro-2,3-dihydro-1H-inden-1-yloxy)-2,3-dihydrobenzofuran-3-yl)acetic acid] | 22 nM
CNC(=O)c1cc(C)c(-c2ccc(F)c3c2CC[C@H]3Oc2ccc3c(c2)OC[C@H]3CC(=O)O)c(C)c1 [Example 62, 2-((S)-6-((R)-4-(2,6-Dimethyl-4-(methylcarbamoyl)phenyl)-7-fluoro-2,3-dihydro-1H-inden-1-yloxy)-2,3-dihydrobenzofuran-3-yl)acetic acid] | 11 nM
Cc1cc(O[C@@H]2CCOC2)cc(C)c1-c1ccc(F)c2c1CC[C@H]2Oc1ccc2c(c1)OC[C@H]2CC(=O)O [Example 9, 2-((S)-6-((R)-4-(2,6-Dimethyl-4-((R)-tetrahydrofuran-3-yloxy)phenyl)-7-fluoro-2,3-dihydro-1H-inden-1-yloxy)-2,3-dihydrobenzofuran-3-yl)acetic acid] | 9 nM
Cc1cc(-c2ncco2)cc(C)c1-c1ccc(F)c2c1CC[C@H]2Oc1ccc2c(c1)OC[C@H]2CC(=O)O [Example 18, 2-((S)-6-((R)-4-(2,6-Dimethyl-4-(oxazol-2-yl)phenyl)-7-fluoro-2,3-dihydro-1H-inden-1-yloxy)-2,3-dihydrobenzofuran-3-yl)acetic acid] | 4 nM
Cc1cc(OCC[S+](C)[O-])cc(C)c1-c1ccc(F)c2c1CC[C@H]2Oc1ccc2c(c1)OC[C@H]2CC(=O)O (stereo partly drawn) [Example 5, 2-((3S)-6-((1R)-4-(2,6-Dimethyl-4-(2-(methylsulfinyl)ethoxy)phenyl)-7-fluoro-2,3-dihydro-1H-inden-1-yloxy)-2,3-dihydrobenzofuran-3-yl)acetic acid] | 19 nM

— patent US8642585B2, “Indanyloxydihydrobenzofuranylacetic acids” (Boehringer Ingelheim International GmbH, priority 2012, dated 2014)
